We go through 1 compound from patent US20220324909A1, “THERAPEUTIC PEPTIDES” (COHBAR, INC., priority 2019, published 2022).

Assay [1] concerns C2C12 cells. The assay can be described thus: Glucose utilization in cultured C2C12 cells and insulin dependence. The class given is cell-based, mouse. The settings on record: 22 h. In outline:
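Differentiated C2C12 myotubes in low-glucose DMEM were treated 22 h with 10 μM peptide, alone or with 5-20 nM insulin; 1 mM metformin served as control. Medium glucose was measured by absorbance at 570 nm and expressed as percent of untreated cells (no insulin) or insulin-only cells, averaged from 2-3 experiments in triplicate.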

Assay [2] relates to C2C12 cells. Put plainly: Cellular ROS levels induced by TBHP in C2C12 cells (DCFDA). The class given is cell-based, mouse. The settings on record: peptide 10 μM 18-20 hours, then TBHP 100 μM 1 hour; relative to TBHP control. The procedure:
The protective or synergistic effect of the peptides on cellular levels of reactive oxygen species (ROS) induced by oxidative stress can be assessed using an assay of ROS in cultured cells such as mouse myoblasts exposed to a suitable oxidative stress. Peptides were initially prepared as 10 mM stock in DMSO, diluted to 1 mM in H2O, and added at a final concentration of 10 μM (0.1% DMSO). […] TBHP was used at final concentration of 100 μM. Sulforaphane at final concentration of 10 μM was used as a protective control against TBHP induced ROS production. […] C2C12 cells were grown in DMEM supplemented with 20% FBS with 100 IU/ml penicillin and 100 μg/ml streptomycin. […] C2C12 cells were seeded at 7,500 cells per well on 96-well plates. […] After 18-20 hours of incubation the cells were loaded with DCFDA for 45 min. TBHP at 100 μM was then added to the appropriate wells for 1 hour. ROS activity was determined using a DCFDA Cellular ROS Detection Assay kit (Abcam, Cambridge, Mass.) according to the manufacturer's instructions. Fluorescence in each sample well on the plate was measured using a Cytation 3 plate reader at Ex/Em=485/535 nm (BioTek, Winooski, Vt.). Activity was calculated relative to TBHP control. The relative standard deviation of the sulforaphane control was <20%. The ROS level produced by the sulforaphane control in the presence of TBHP was 52% of the TBHP control.

Assay [3] has as its system 3T3-L1 mouse adipocytes. Put plainly: Free fatty acid levels in cultured 3T3-L1 mouse adipocytes and insulin dependence (Example 17). The class given is cell-based. The settings on record: isoproterenol 0.1 nM.
Assay [4] concerns 3T3-L1 mouse adipocytes. Put plainly: Free fatty acid levels in 3T3-L1 mouse adipocytes (Example 12, 10 μM). The assay is classed as cell-based. The settings on record: peptide 10 μM, 20-22 h then 3 h with isoproterenol 1 nM. The procedure: The effect of the peptides on fatty acid metabolism can be assessed using an assay of free fatty acid levels in cultured cells such as mouse adipocytes. Peptides were initially prepared as 10 mM stock in DMSO, diluted to 1 mM in H2O, and used at a final concentration of 10 μM (0.1% DMSO). […] Insulin at 100 nM was added to control wells.

Assay [5] concerns C2C12 cells. Put plainly: ATP levels in cultured C2C12 cells (CellTiter-Glo). The class given is cell-based, mouse. The settings on record: peptide 10 μM, 3 days with readdition every 24 hours, relative to 0.1% DMSO control. As to the method:
The effect of the peptides on cellular metabolism can be assessed using an assay of ATP levels in cultured cells such as mouse myoblast cells. Peptides were initially prepared as 10 mM stock in DMSO, diluted to 1 mM in H2O, and used at a final concentration of 10 μM (0.1% DMSO). […] Lovastatin was prepared as 10 mM stock in 70% Ethanol and used at final concentration of 10 μM containing 0.1% DMSO. CellTiter-Glo® Assay kit was purchased from Promega (Madison, Wis.). […] C2C12 cells were grown in DMEM medium supplemented with 20% FBS with 100 IU/ml penicillin and 100 μg/ml streptomycin. […] C2C12 cells were seeded at 800 cells per well on 96-well plates. […] ATP levels were determined using a CellTiter-Glo Assay kit according to the manufacturer's instructions. Luminescence for each sample well on the plate was measured using a Cytation 3 plate reader (BioTek, Winooski, Vt.). Activity was calculated relative to 0.1% DMSO treated control. The relative standard deviation of the result for the 0.1% DMSO treated control was <5%. […] ATP levels for treatment with lovastatin (10 μM) were <50% of the 0.1% DMSO treated control value.
(In ATP-based viability assays light output follows the ATP content of the culture.)

Regarding `CSCC[C@H](NC(=O)CNC(=O)[C@H](CCSC)NC(=O)[C@H](CCSC)NC(=O)[C@H](CCCNC(=N)N)NC(=O)[C@@H](N)CCCNC(=N)N)C(=O)N[C@H](C(=O)N[C@@H](Cc1ccccc1)C(=O)N[C@@H](CCC(N)=O)C(=O)N[C@@H](CO)C(=O)N[C@@H](CC(C)C)C(=O)N[C@@H](CS)C(=O)NCC(=O)N[C@H](C)C(=O)O)C(C)C` [compound 15], the “Glucose Utilization, Percent of Control Activity No Insulin” value in the assay on C2C12 cells [1] (peptide 10 μM alone, glucose in medium relative to untreated cells) was determined as 103%. In addition, the “Glucose Utilization, Percent of Control Activity With Insulin” value in the assay with C2C12 cells [1] (peptide 10 μM with 5-20 nM insulin, glucose in medium relative to insulin treated cells) amounted to 106.9%. Moreover, the “Cellular ROS Levels Induced by TBHP, Percent of Control” value in the assay with C2C12 cells [2] was determined as 105.9%. In addition, the “Free Fatty Acid Levels, Percent of Isoproterenol Control Activity No Insulin” value with 3T3-L1 mouse adipocytes [3] (peptide 10 μM alone, relative to isoproterenol treated cells) worked out at 109%. Further, the “Free Fatty Acid Levels, Percent of Isoproterenol Control Activity With Insulin” value in the assay with 3T3-L1 mouse adipocytes [3] (peptide 10 μM with 0.25 nM insulin, relative to 0.25 nM insulin treated cells) is 89.0%. Besides, the “Free Fatty Acid Levels, Percent of Isoproterenol Control Activity” value in the assay on 3T3-L1 mouse adipocytes [4] worked out at 90.8%. Also, the “ATP Levels, Percent of Control Activity” value in the assay on C2C12 cells [5] stood at 100.4%.
